# Experiments:
# Format in all cases: protein assay
# [1] = target: T1, Antigen-presenting glycoprotein CD1d (Mus musculus) (UniProt P11609+P11610); assay: Binding affinity to WTB6 mouse spleen CD1d assessed as restriction ratio for reduction in iNKT/CD1d interaction by FACS analysis relative to control
# [2] = target: T1, Antigen-presenting glycoprotein CD1d (Mus musculus); assay: Binding affinity to CD1d in Traj18 knock out C57BL/6 mouse assessed as restriction ratio for reduction in iNKT/CD1d interaction by FACS analysis relative to control
# [3] = target: T1, Antigen-presenting glycoprotein CD1d (Mus musculus); assay: Binding affinity to WTB6 mouse thymus CD1d assessed as restriction ratio for reduction in iNKT/CD1d interaction by FACS analysis relative to control
Compound,Ratio [1],Ratio [2],Ratio [3]
CCCCCCCCCCCCCC[C@@H](O)[C@@H](O)[C@H](CO[C@H]1O[C@H](CO)[C@H](O)[C@H](O)[C@H]1O)NC(=O)CCCCCCCCOc1ccc(/N=N/c2ccccc2)cc1,0.4%,< 0.02%,0.28%
CCCCCCCCCCCCCC[C@@H](O)[C@@H](O)[C@H](CO[C@H]1O[C@H](CO)[C@H](O)[C@H](O)[C@H]1O)NC(=O)CCCCCCOc1ccc(/N=N\c2ccccc2)cc1,0.42%,< 0.02%,0.4%
CCCCCCCCCCCCCCCCCCCCCCCCCC(=O)N[C@@H](CO[C@H]1O[C@H](CO)[C@H](O)[C@H](O)[C@H]1O)[C@H](O)[C@H](O)CCCCCCCCCCCCCC,0.66%,< 0.02%,0.45%
CCCCCCCCCCCCCC[C@@H](O)[C@@H](O)[C@H](CO[C@H]1O[C@H](CO)[C@H](O)[C@H](O)[C@H]1O)NC(=O)CCCCCCCCCCOc1ccc(/N=N/c2ccccc2)cc1,0.5%,< 0.02%,0.36%

# Continued, values first:
Ratio [1],Ratio [2],Ratio [3],Compound
0.06%,0.28%,0.09%,CCCCCCCCCCCCCC[C@@H](O)[C@@H](O)[C@H](CO[C@H]1O[C@H](CO)[C@H](O)[C@H](O)[C@H]1O)NC(=O)CCCCOc1ccc(/N=N/c2ccccc2)cc1
0.48%,< 0.02%,0.37%,CCCCCCCCCCCCCC[C@@H](O)[C@@H](O)[C@H](CO[C@H]1O[C@H](CO)[C@H](O)[C@H](O)[C@H]1O)NC(=O)CCCCCCCCOc1ccc(/N=N\c2ccccc2)cc1
0.31%,< 0.02%,0.35%,CCCCCCCCCCCCCC[C@@H](O)[C@@H](O)[C@H](CO[C@H]1O[C@H](CO)[C@H](O)[C@H](O)[C@H]1O)NC(=O)CCCCCCOc1ccc(/N=N/c2ccccc2)cc1
0.57%,< 0.02%,0.44%,CCCCCCCCCCCCCC[C@@H](O)[C@@H](O)[C@H](CO[C@H]1O[C@H](CO)[C@H](O)[C@H](O)[C@H]1O)NC(=O)CCCCCCCCCCOc1ccc(/N=N\c2ccccc2)cc1
0.05%,0.57%,0.05%,CCCCCCCCCCCCCC[C@@H](O)[C@@H](O)[C@H](CO[C@H]1O[C@H](CO)[C@H](O)[C@H](O)[C@H]1O)NC(=O)CCCCOc1ccc(/N=N\c2ccccc2)cc1
